# Paper PMC12716216, “Characterization of Ligand Binding in Human Serum Albumin from Atomistic Energy Transfer Simulations” (Small Methods, 2025)
# “And” between values parts separate entries of the source, which are not always exact repeats. Identical values can stand only once. Like-named read-outs stand apart in the source and are kept apart here.
# What was measured:
# [1] = molecular target: human serum albumin (HSA) (Homo sapiens, UniProt P02768); experiment: Fluorescence ligand titration of HSA: quenching of intrinsic protein (Trp214) fluorescence, fitted Kd, n and FRET efficiency
# Procedure: For absorbance and fluorescence, solutions of the ligand, protein, and protein‐ligand complexes at different concentrations were prepared using PBS 1x buffer. […] The fluorescence intensities of protein‐ligand complexes were corrected for inner‐filter effects based on the absorbance of the ligands at the excitation and emission wavelengths ( IDA,cor=IDA10^(Absex+Absem)/2 ).^[ [19] ^] The fluorescence of the ligands in the absence of HSA was also recorded at 100 µM concentration. Spectral overlaps used to compute FRET rates were computed from the measured area‐normalized D emission and A absorption spectra and are reported in the Supporting Information. Protein and ligand solutions were freshly prepared, and titrations were carried out in the cuvette right before the measurement. The average of three measurements for the complexes at each ligand concentration was used to plot the spectra and compute FRET efficiencies following this formula: (10) E=1−IDA/ID where IDA is the intensity of the complex and ID the intensity of HSA in the absence of ligand.
# Efficiencies were corrected based on the percentage of protein‐ligand complex formed in each solution, based on the measured Kd values, then final efficiencies were averaged over the three concentrations.
# HSA = conditions: cited from earlier work
# [2] = Kd, excitation 280 nm, IFE-corrected
# [3] = Kd, excitation 280 nm, no correction
# [4] = Kd, excitation 295 nm, no correction
# [5] = dissociation binding constant Kd, 5 µM HSA, PBS 1x, 25 °C, 295 nm excitation, IFE-corrected (carprofen: 280 nm)
# [6] = 5 µM HSA, PBS 1x, 295 nm excitation, IFE-corrected (carprofen: 280 nm)
# [7] = corrected by fraction of ligand-bound protein, 295 nm excitation, IFE-corrected (carprofen: 280 nm)
# [8] = excitation 280 nm, IFE-corrected
# [9] = excitation 280 nm, no correction
# [10] = excitation 295 nm, IFE-corrected
# [11] = excitation 295 nm, no correction
# Chain of human serum albumin (HSA) (P02768 25-609): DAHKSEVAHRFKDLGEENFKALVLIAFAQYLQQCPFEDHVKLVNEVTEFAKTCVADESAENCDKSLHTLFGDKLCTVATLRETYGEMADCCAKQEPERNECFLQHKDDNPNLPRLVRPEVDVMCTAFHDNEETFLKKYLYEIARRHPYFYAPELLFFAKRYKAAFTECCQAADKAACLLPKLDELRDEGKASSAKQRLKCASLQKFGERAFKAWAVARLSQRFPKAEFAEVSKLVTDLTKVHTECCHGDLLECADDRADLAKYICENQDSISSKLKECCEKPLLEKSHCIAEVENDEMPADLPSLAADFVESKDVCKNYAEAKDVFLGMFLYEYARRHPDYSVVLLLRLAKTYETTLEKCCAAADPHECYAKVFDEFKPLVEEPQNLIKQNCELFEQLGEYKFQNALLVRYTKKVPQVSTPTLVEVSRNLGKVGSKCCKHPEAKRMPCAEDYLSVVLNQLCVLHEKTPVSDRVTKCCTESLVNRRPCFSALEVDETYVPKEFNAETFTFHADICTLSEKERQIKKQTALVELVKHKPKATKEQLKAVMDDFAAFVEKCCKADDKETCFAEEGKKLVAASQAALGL
SMILES,"Kd [1, 2] [µM]","Kd [1, 3] [µM]","Kd [1, 4] [µM]","Kd [1, 5] [µM]","solute binding parameter n (Hill coefficient) [1, 6]","experimental FRET efficiency E (Eexp) [1, 7]","Eexp [1, 8]","Eexp [1, 9]","Eexp [1, 10]","Eexp [1, 11]",measured FRET efficiency ([1]; from fluorescence data) [%],further results
Oc1cccc2ccccc12 [1‐naphthol],128,104,105,137,–,–,–,–,–,–,–,Eexp [1]: 0.83± 0.01 and 0.46± 0.05 and 0.79± 0.03 and 0.54± 0.03; experimental FRET efficiency E (Eexp) [1]: 0.46± 0.05 and 0.46; measured FRET efficiency [1]: 46%; solute binding parameter n (Hill coefficient) [1]: 0.73
Oc1ccc2ccccc2c1 [2‐naphthol],64.5,77,6.9,6.6,0.71,0.80,0.71± 0.02,0.87± 0.03,0.80 ± 0.03,0.82± 0.03,80,"experimental FRET efficiency E (Eexp) ([1]; corrected by fraction of ligand-bound protein, 295 nm excitation, IFE-corrected (carprofen: 280 nm), listed as 2-Naphthol): 0.80 ± 0.03"
C[C@H](C(=O)O)c1ccc2c(c1)[nH]c1ccc(Cl)cc12 [(S)‐carprofen],–,3,2.8,1.8,0.48,0.81,0.81 ± 0.03,0.89± 0.02,0.42± 0.04,0.71± 0.03,81,"Kd (HSA; read-out: Kd previous reports): 0.2 to 0.9 µM; experimental FRET efficiency E (Eexp) ([1]; corrected by fraction of ligand-bound protein, 295 nm excitation, IFE-corrected (carprofen: 280 nm), listed as Carprofen): 0.81 ± 0.03"
"O=C(O)c1c2ccccc2nc2ccccc12 [ACA, 9‐acridinecarboxylic acid]",17.5,20.9,18.3,15.5,0.67,0.63,0.64± 0.02,0.75± 0.02,0.63 ± 0.02,0.72± 0.02,63,–
"NCCNc1cccc2ccccc12 [NNE, N‐(1‐naphthyl)ethylenediamine]",3.9,5.6,5,3.5,0.33,0.55,0.45± 0.01,0.57± 0.03,0.55 ± 0.02,0.67± 0.03,55,"experimental FRET efficiency E (Eexp) ([1]; corrected by fraction of ligand-bound protein, 295 nm excitation, IFE-corrected (carprofen: 280 nm), listed as N-(1-Naphthyl)ethylenediamine): 0.55 ± 0.02"
"O=C(O)COc1cccc2cccnc12 [QAA, (quinoline‐8‐yloxy)‐acetic acid]",74.5,75.9,54.8,48,0.76,0.60,0.68± 0.01,0.80± 0.01,0.60 ± 0.01,0.76± 0.01,60,"Kd ([1]; Kd, excitation 295 nm, IFE-corrected): 48.1 µM; experimental FRET efficiency E (Eexp) ([1]; corrected by fraction of ligand-bound protein, 295 nm excitation, IFE-corrected (carprofen: 280 nm), listed as (Quinolin-8-yloxy)-acetic acid): 0.60 ± 0.01"
COc1ccc2c(c1)c(CC(=O)O)c(C)n2C(=O)c1ccc(Cl)cc1 [indomethacin],–,–,–,–,–,–,–,–,–,–,–,Kd (HSA; read-out: Kd previously reported value): 6.1 µM
"O=C(O)c1c2ccccc2nc2ccccc12 [protonated ACA, 9-Acridinecarboxylic acid (protonated)]",–,–,–,–,–,0.63 ± 0.02,–,–,–,–,–,–
